# In patent US20250282799A1, “SUBSTITUTED PYRIDO[4,3-d]PYRIMIDINES AS KRAS MODULATORS” (Alterome Therapeutics, Inc., priority 2023, published 2025):
# System: KRAS G12V dependent lung adenocarcinoma cell line, NCI-H441
# Experiment: Cellular pERK (Thr202/Tyr204) FRET/HTRF assay
# Format: cell-based
# Settings: Homo sapiens, NCI-H441, cellular pERK (Thr202/Tyr204) HTRF, NCI-H441 cells
# Procedure, shortened: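 Phospho-ERK1/2 (Thr202/Tyr204) quantified by two-antibody HTRF in lysed NCI-H441 cells. Cells seeded overnight, treated with test compounds for 1 hr at 37 °C against DMSO control, then lysed and detected at room temperature; IC50 obtained by curve fitting.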
row,IC50 [nM],SMILES
1,< 50,"[2H]C([2H])([2H])Oc1c(F)c(F)c(F)c2cc(N)cc(-c3ncc4c(N5CCOC[C@H]6[C@H](F)[C@H]65)nc(OC[C@@]56CCCN5CC(=C)C6)nc4c3F)c12 [Example 125, 6,7,8-trifluoro-4-(8-fluoro-4-((1S,7S,8S)-8-fluoro-5-oxa-2-azabicyclo[5.1.0]octan-2-yl)-2-(((S)-2-methylenetetrahydro-1H-pyrrolizin-7a(5H)-yl)methoxy)pyrido[4,3-d]pyrimidin-7-yl)-5-(methoxy-d3)naphthalen-2-amine]"
2,< 50,"[2H]C([2H])(Oc1nc(N2CCOC[C@H]3[C@H](F)[C@H]32)c2cnc(-c3cncc4ccc(F)c(OCF)c34)c(F)c2n1)[C@@]12CCCN1C[C@H](F)C2 [Example 126, (1S,7S,8S)-8-Fluoro-2-(8-fluoro-7-(6-fluoro-5-(fluoromethoxy)isoquinolin-4-yl)-2-(((2R,7aS)-2-fluorotetrahydro-1H-pyrrolizin-7a(5H)-yl)methoxy-d2)pyrido[4,3-d]pyrimidin-4-yl)-5-oxa-2-azabicyclo[5.1.0]octane]"
3,500 to 10000,"[2H]C([2H])(F)Oc1c(F)ccc2cncc(-c3ncc4c(N5CCOC[C@H]6[C@H](F)[C@H]65)nc(OC([2H])([2H])[C@@]56CCCN5C[C@H](F)C6)nc4c3F)c12 [Example 127, (1S,7S,8S)-8-Fluoro-2-(8-fluoro-7-(6-fluoro-5-(fluoromethoxy-d2)isoquinolin-4-yl)-2-(((2R,7aS)-2-fluorotetrahydro-1H-pyrrolizin-7a(5H)-yl)methoxy-d2)pyrido[4,3-d]pyrimidin-4-yl)-5-oxa-2-azabicyclo[5.1.0]octane]"
4,< 50,"[2H]C([2H])(F)Oc1c(F)c(F)c(F)c2cc(N)cc(-c3ncc4c(N5CCOC[C@H]6[C@H](F)[C@H]65)nc(OC([2H])([2H])[C@@]56CCCN5C[C@H](F)C6)nc4c3F)c12 [Example 128, 6,7,8-trifluoro-4-(8-fluoro-4-((1S,7S,8S)-8-fluoro-5-oxa-2-azabicyclo[5.1.0]octan-2-yl)-2-(((2R,7aS)-2-fluorotetrahydro-1H-pyrrolizin-7a(5H)-yl)methoxy-d2)pyrido[4,3-d]pyrimidin-7-yl)-5-(fluoromethoxy-d2)naphthalen-2-amine]"
5,< 50,"C#Cc1c(F)ccc2cccc(-c3ncc4c(N5CCOC[C@H]6[C@H](F)[C@H]65)nc(OC[C@@]56CCCN5C/C(=C/F)C6)nc4c3F)c12 [Example 129, (1S,7S,8S)-2-(7-(8-Ethynyl-7-fluoronaphthalen-1-yl)-8-fluoro-2-(((S,E)-2-(fluoromethylene)tetrahydro-1H-pyrrolizin-7a(5H)-yl)methoxy)pyrido[4,3-d]pyrimidin-4-yl)-8-fluoro-5-oxa-2-azabicyclo[5.1.0]octane]"
6,< 50,"C#Cc1c(F)ccc2cccc(-c3ncc4c(N5CCOC[C@H]6[C@H](F)[C@H]65)nc(OC[C@@]56CCCN5C/C(=C\F)C6)nc4c3F)c12 [Example 130, (1S,7S,8S)-2-(7-(8-Ethynyl-7-fluoronaphthalen-1-yl)-8-fluoro-2-(((S,Z)-2-(fluoromethylene)tetrahydro-1H-pyrrolizin-7a(5H)-yl)methoxy)pyrido[4,3-d]pyrimidin-4-yl)-8-fluoro-5-oxa-2-azabicyclo[5.1.0]octane]"
7,< 50,"[2H]C([2H])([2H])Oc1c(F)cc(F)c2cc(N)cc(-c3ncc4c(N5CCOC[C@H]6[C@H](F)[C@H]65)nc(OC([2H])([2H])[C@@]56CCCN5C[C@H](F)C6)nc4c3F)c12 [Example 131, 6,8-difluoro-4-(8-fluoro-4-((1S,7S,8S)-8-fluoro-5-oxa-2-azabicyclo[5.1.0]octan-2-yl)-2-(((2R,7aS)-2-fluorotetrahydro-1H-pyrrolizin-7a(5H)-yl)methoxy-d2)pyrido[4,3-d]pyrimidin-7-yl)-5-(methoxy-d3)naphthalen-2-amine]"
8,< 50,"[2H]C([2H])([2H])Oc1c(F)c(F)c(F)c2cc(N)cc(-c3ncc4c(N5CCOC[C@H]6[C@H](F)[C@H]65)nc(OC[C@@]56CCCN5C/C(=C/F)C6)nc4c3F)c12 [Example 132, 6,7,8-trifluoro-4-(8-fluoro-4-((1S,7S,8S)-8-fluoro-5-oxa-2-azabicyclo[5.1.0]octan-2-yl)-2-(((S,E)-2-(fluoromethylene)tetrahydro-1H-pyrrolizin-7a(5H)-yl)methoxy)pyrido[4,3-d]pyrimidin-7-yl)-5-(methoxy-d3)naphthalen-2-amine]"
9,< 50,"[2H]C([2H])([2H])Oc1c(F)c(F)c(F)c2cc(N)cc(-c3ncc4c(N5CCOC[C@H]6[C@H](F)[C@H]65)nc(OC[C@@]56CCCN5C/C(=C\F)C6)nc4c3F)c12 [Example 133, 6,7,8-trifluoro-4-(8-fluoro-4-((1S,7S,8S)-8-fluoro-5-oxa-2-azabicyclo[5.1.0]octan-2-yl)-2-(((S,Z)-2-(fluoromethylene)tetrahydro-1H-pyrrolizin-7a(5H)-yl)methoxy)pyrido[4,3-d]pyrimidin-7-yl)-5-(methoxy-d3)naphthalen-2-amine]"
10,< 50,"C#Cc1c(F)ccc2cc(N)cc(-c3ncc4c(N5CCOC[C@H]6[C@H](F)[C@H]65)nc(OC[C@@]56CCCN5CC(=C(F)F)C6)nc4c3F)c12 [Example 134, 4-(2-(((S)-2-(difluoromethylene)tetrahydro-1H-pyrrolizin-7a(5H)-yl)methoxy)-8-fluoro-4-((1S,7S,8S)-8-fluoro-5-oxa-2-azabicyclo[5.1.0]octan-2-yl)pyrido[4,3-d]pyrimidin-7-yl)-5-ethynyl-6-fluoronaphthalen-2-amine]"
11,< 50,"[2H]C([2H])(F)Oc1c(F)c(F)cc2cncc(-c3ncc4c(N5CCOC[C@H]6[C@H](F)[C@H]65)nc(OC([2H])([2H])[C@@]56CCCN5C[C@H](F)C6)nc4c3F)c12 [Example 135, (1S,7S,8S)-2-(7-(6,7-difluoro-5-(fluoromethoxy-d2)isoquinolin-4-yl)-8-fluoro-2-(((2R,7aS)-2-fluorotetrahydro-1H-pyrrolizin-7a(5H)-yl)methoxy-d2)pyrido[4,3-d]pyrimidin-4-yl)-8-fluoro-5-oxa-2-azabicyclo[5.1.0]octane]"
12,50 to 500,"[2H]C([2H])([2H])Oc1c(F)c(F)cc2cncc(-c3ncc4c(N5CCOC[C@H]6[C@H](F)[C@H]65)nc(OC([2H])([2H])[C@@]56CCCN5C[C@H](F)C6)nc4c3F)c12 [Example 136, (1S,7S,8S)-2-(7-(6,7-difluoro-5-(methoxy-d3)isoquinolin-4-yl)-8-fluoro-2-(((2R,7aS)-2-fluorotetrahydro-1H-pyrrolizin-7a(5H)-yl)methoxy-d2)pyrido[4,3-d]pyrimidin-4-yl)-8-fluoro-5-oxa-2-azabicyclo[5.1.0]octane]"
13,< 50,"[2H]C([2H])(F)Oc1c(F)cc(F)c2cc(N)cc(-c3ncc4c(N5CCOC[C@H]6[C@H](F)[C@H]65)nc(OC([2H])([2H])[C@@]56CCCN5C[C@H](F)C6)nc4c3F)c12 [Example 139, 6,8-difluoro-4-(8-fluoro-4-((1S,7S,8S)-8-fluoro-5-oxa-2-azabicyclo[5.1.0]octan-2-yl)-2-(((2R,7aS)-2-fluorotetrahydro-1H-pyrrolizin-7a(5H)-yl)methoxy-d2)pyrido[4,3-d]pyrimidin-7-yl)-5-(fluoromethoxy-d2)naphthalen-2-amine]"
